Test results reported in paper PMC5352362, “Molecular and functional evaluation of a novel HIF inhibitor, benzopyranyl 1,2,3-triazole compound” (Oncotarget, 2016).

Legend:
HIF-1α = HIF-1α (Homo sapiens, UniProt Q16665); test: HIF-1α ubiquitination, IP/IB with MG132 in A549 cells; type: cell-based; details: hypoxia 16 h, then MG132 20 μM 4 h, compared to normoxic control cells
Experimental: Figure 4 Compound 12 increased hydroxylation and proteasome-mediated degradation of HIF-1α (A) A549 cells were treated with Compound 12 (at concentrations of 0 nM, 1 nM, 10 nM, and 100 nM) for 16 h. Cells were fixed with paraformaldehyde; an immunofluorescence assay was then performed using anti-HIF-1α antibodies and Alexa Fluor 488-labeled secondary antibodies (green). Nuclei were stained with DAPI. N, normoxia; H, hypoxia. (B) A549 cells were treated with Compound 12 (10 nM concentration) and exposed to hypoxic conditions for 16 h. Cells were immediately treated with cycloheximide (CHX, 100 μg/mL) for the time indicated, and HIF-1α protein levels were determined by western blotting. β-actin was used as an internal control. Half-life (t1/2) of HIF-1α protein was determined using relative expression levels of HIF-1α. (C) A549 cells were treated with Compound 12 (at concentrations of 0 nM, 1 nM, 10 nM, and 100 nM) for 16 h. The expression levels of HIF-1α, hydroxylated (OH)-HIF-1α at P402 or P564, and PHD2 were determined via western blotting using specific antibodies. N, normoxia; H, hypoxia. (D) A549 cells were transfected with two kinds of small interfering RNAs targeting PHD2 and then treated with Compound 12 under hypoxic exposure for 16 h. Cell lysates were immunoblotted with an anti-HIF-1α and PHD2 antibody. […] Relative levels of ubiquitinated HIF-1α were quantified and graphed. […]

HUVECs = test: Transwell cell migration assay, VEGF-induced; type: cell-based, human; details: VEGF 20 ng/mL, 24 h
Experimental: (§1) Figure 5 Compound 12 suppressed HIF-1α target gene expression, and confirmation of in vitro results via determination of effects on angiogenesis in vivo (A) A549 cells were treated with Compound 12 (at concentrations of 0 nM, 1 nM, 10 nM, and 100 nM) for 16 h. The mRNA levels of HIF-1α target genes were determined by semiquantitative RT-PCR. β-actin was used as an internal control. D. DMSO vehicle control. N, normoxia; H, hypoxia. (B) A549 cells were treated with serum-reduced culture media containing Compound 12 (at concentrations of 0 nM, 10 nM, and 100 nM) for 16 h. Media supernatant was collected, and secreted VEGF was determined by ELISA after removal of cellular debris. N, normoxia; H, hypoxia. **P < 0.01 versus hypoxia (H) DMSO (D)-treated control. (C) HUVECs were treated with Compound 12, at the indicated concentrations, in the presence of VEGF (20 ng/mL) for 24 h in 1% serum-containing media. […] Cells that migrated through the membrane (8 μm pore size) were stained with hematoxylin and eosin, pictured as shown in upper panel, and counted (graph). *P < 0.05, **P < 0.01 versus VEGF-treated control. […] (F) Compound 12 (0.1 μg and 1 μg dosages) and retinoic acid (RA, positive control) were applied to the ED 4.5 CAM for two days, neovessel formation from the large vessels was observed, and percentages of positive angiogenic eggs (from total eggs tested) were calculated. […]

[1] = system: chick chorioallantoic membrane angiogenesis; test: Chick embryo chorioallantoic membrane (CAM) assay; type: in vivo; details: applied to ED 4.5 CAM for two days; Compound 12 0.1 μg and 1 μg
Experimental: as §1

Sequence of HIF-1α (Q16665 whole entry): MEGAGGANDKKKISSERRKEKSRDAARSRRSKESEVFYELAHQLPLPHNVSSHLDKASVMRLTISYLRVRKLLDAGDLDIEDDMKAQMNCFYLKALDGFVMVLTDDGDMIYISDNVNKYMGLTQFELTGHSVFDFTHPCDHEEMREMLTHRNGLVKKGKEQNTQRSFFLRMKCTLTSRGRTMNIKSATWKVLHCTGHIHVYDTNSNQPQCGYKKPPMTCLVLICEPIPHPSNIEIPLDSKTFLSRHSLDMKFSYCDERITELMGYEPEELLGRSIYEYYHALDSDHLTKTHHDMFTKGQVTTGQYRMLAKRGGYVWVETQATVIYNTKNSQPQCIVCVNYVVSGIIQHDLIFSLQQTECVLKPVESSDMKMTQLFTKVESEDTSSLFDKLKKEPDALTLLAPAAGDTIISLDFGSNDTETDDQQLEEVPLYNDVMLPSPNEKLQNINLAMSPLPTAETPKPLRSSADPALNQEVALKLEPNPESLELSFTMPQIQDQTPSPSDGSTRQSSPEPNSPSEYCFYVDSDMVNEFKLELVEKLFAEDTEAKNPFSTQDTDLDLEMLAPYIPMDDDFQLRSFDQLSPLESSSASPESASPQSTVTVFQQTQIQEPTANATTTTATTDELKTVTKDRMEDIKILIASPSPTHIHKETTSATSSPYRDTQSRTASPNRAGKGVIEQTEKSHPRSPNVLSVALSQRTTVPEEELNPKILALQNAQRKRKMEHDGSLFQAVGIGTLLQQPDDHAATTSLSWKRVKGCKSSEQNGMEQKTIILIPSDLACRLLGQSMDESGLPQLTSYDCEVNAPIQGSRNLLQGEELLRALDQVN

ubiquitination of HIF-1α (HIF-1α): significantly increased
SMILES: COc1ccc(-c2cn(CC3(C)C=Cc4cc([N+](=O)[O-])ccc4O3)nn2)cc1 (stereo not drawn) [Compound 12, 4-(4-methoxyphenyl)-1-((2-methyl-6-nitro-2H-chromen-2-yl)methyl)-1H-1,2,3-triazole]
VEGF-induced endothelial migration (HUVECs): significantly inhibited | CAM angiogenesis [1]: significantly suppressed CAM angiogenesis, in a dose-dependent manner
